Test results as given in US12077503B2, “Substituted cyclic amides and their use as herbicides” (FMC CORPORATION, priority 2015, dated 2024).

Key:
Format in all cases: in vivo
[1] = tested on: ryegrass, Italian (Italian ryegrass, Lolium multiflorum); assay: Test A preemergence; settings: Lolium multiflorum, pre-emergence, 240 h
How it was run: (§1)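 Seeds sprayed preemergence with a directed soil spray, or plants at 2 to 10 cm height and one- to two-leaf stage sprayed postemergence, with test chemicals in a non-phytotoxic solvent mixture containing surfactant, in loam soil–sand blend. Injury rated visually against untreated controls after about 10 d in greenhouse, 0 (no effect) to 100 (complete control).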

[2] = tested on: giant foxtail (Setaria faberii); assay: Test A preemergence; settings: Setaria faberi, pre-emergence, 240 h
How it was run: as §1

[3] = tested on: pigweed (Amaranthus retroflexus); assay: Test A preemergence; settings: Amaranthus retroflexus, pre-emergence, 240 h
[4] = tested on: barnyardgrass (Echinochloa crus-galli); assay: Test A preemergence; settings: Echinochloa crus-galli, pre-emergence, 240 h
How it was run: as §1

Kochia (Kochia scoparia) [5] = assay: Test A preemergence; settings: Bassia scoparia, pre-emergence, 240 h
How it was run: as §1

[6] = tested on: ragweed (common ragweed, Ambrosia elatior); assay: Test A preemergence; settings: Ambrosia artemisiifolia, pre-emergence, 240 h
How it was run: as §1

[7] = tested on: blackgrass (Alopecurus myosuroides); assay: Test A postemergence; settings: Alopecurus myosuroides, post-emergence, 240 h, 125 g ai/ha, Postemergence; visual injury after approximately 10 d; 0 to 100 scale where 0 is no effect and 100 is complete control; read-out: Plant response rating, Blackgrass
How it was run: as §1

[8] = tested on: ryegrass, Italian (Italian ryegrass, Lolium multiflorum); assay: Test A postemergence; settings: Lolium multiflorum, post-emergence, 240 h, 125 g ai/ha, Postemergence; visual injury after approximately 10 d; 0 to 100 scale where 0 is no effect and 100 is complete control; read-out: Plant response rating, Ryegrass, Italian
How it was run: as §1

[9] = tested on: giant foxtail (Setaria faberii); assay: Test A postemergence; settings: Setaria faberi, post-emergence, 240 h, 125 g ai/ha, Postemergence; visual injury after approximately 10 d; 0 to 100 scale where 0 is no effect and 100 is complete control; read-out: Plant response rating, Foxtail, Giant
How it was run: as §1

[10] = tested on: pigweed (Amaranthus retroflexus); assay: Test A postemergence; settings: Amaranthus retroflexus, post-emergence, 240 h, 125 g ai/ha, Postemergence; visual injury after approximately 10 d; 0 to 100 scale where 0 is no effect and 100 is complete control; read-out: Plant response rating, Pigweed
How it was run: as §1

corn (Zea mays) = assay: Test A postemergence; settings: Zea mays, post-emergence, 240 h, 125 g ai/ha, Postemergence; visual injury after approximately 10 d; 0 to 100 scale where 0 is no effect and 100 is complete control
How it was run: as §1

[11] = tested on: wheat (Triticum aestivum); assay: Test A postemergence; settings: Triticum aestivum, post-emergence, 240 h, 125 g ai/ha, Postemergence; visual injury after approximately 10 d; 0 to 100 scale where 0 is no effect and 100 is complete control; read-out: Plant response rating, Wheat
How it was run: as §1

[12] = tested on: barnyardgrass (Echinochloa crus-galli); assay: Test A postemergence; settings: Echinochloa crus-galli, post-emergence, 240 h, 125 g ai/ha, Postemergence; visual injury after approximately 10 d; 0 to 100 scale where 0 is no effect and 100 is complete control; read-out: Plant response rating, Barnyardgrass
How it was run: as §1

Kochia (Kochia scoparia) [13] = assay: Test A postemergence; settings: Bassia scoparia, post-emergence, 240 h, 125 g ai/ha, Postemergence; visual injury after approximately 10 d; 0 to 100 scale where 0 is no effect and 100 is complete control; read-out: Plant response rating, Kochia
How it was run: as §1

[14] = tested on: Galium (catchweed bedstraw, Galium aparine); assay: Test A postemergence; settings: Galium, post-emergence, 240 h, 125 g ai/ha, Postemergence; visual injury after approximately 10 d; 0 to 100 scale where 0 is no effect and 100 is complete control; read-out: Plant response rating, Galium
How it was run: as §1

[15] = tested on: ragweed (common ragweed, Ambrosia elatior); assay: Test A postemergence; settings: Ambrosia artemisiifolia, post-emergence, 240 h, 125 g ai/ha, Postemergence; visual injury after approximately 10 d; 0 to 100 scale where 0 is no effect and 100 is complete control; read-out: Plant response rating, Ragweed
How it was run: as §1

[16] = tested on: ducksalad (Heteranthera limosa); assay: Test B flooded paddy test; settings: Heteranthera limosa, Flood, 250 g ai/ha; scale of 0 to 100 where 0 is no effect and 100 is complete control; read-out: Ducksalad plant response rating
How it was run: (§2)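 Evaluation by eye, against controls, occurred 13–15 d post-treatment in a greenhouse, using a 0 (no effect) to 100 (complete control) scale. Application was into the paddy water, 3 cm deep over the soil, on 2-leaf plants.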

[17] = tested on: sedge, umbrella (small-flower umbrella sedge, Cyperus difformis); assay: Test B flooded paddy test; settings: Cyperus difformis, Flood, 250 g ai/ha; scale of 0 to 100 where 0 is no effect and 100 is complete control; read-out: Sedge, Umbrella plant response rating
How it was run: as §2

rice (Oryra sativa) = assay: Test B flooded paddy test; settings: Oryza sativa, Flood, 250 g ai/ha; scale of 0 to 100 where 0 is no effect and 100 is complete control; read-out: Rice plant response rating
How it was run: as §2

[18] = tested on: barnyardgrass (Echinochloa crus-galli); assay: Test B flooded paddy test; settings: Echinochloa crus-galli, Flood, 250 g ai/ha; scale of 0 to 100 where 0 is no effect and 100 is complete control; read-out: Barnyardgrass plant response rating
How it was run: as §2

CCOc1cccc([C@H]2CN(C)C(=O)[C@@H]2C(=O)Nc2ccc(F)cc2F)c1 [Compound 963]
65%: pest or weed control at 250 g/ha [18]
100%: pest or weed control at 125 g/ha ([2]; 125 g ai/ha, Preemergence, visual injury rating after approximately 10 d, read-out: Foxtail, Giant plant response rating (0 to 100 scale, 0 is no effect, 100 is complete control)) | pest or weed control at 500 g/ha ([2]; 500 g ai/ha, preemergence, visual injury rating about 10 d after treatment, 0 to 100 scale (0 no effect, 100 complete control), read-out: Foxtail, Giant plant response rating) | pest or weed control at 500 g/ha ([4]; 500 g ai/ha, preemergence, visual injury rating about 10 d after treatment, 0 to 100 scale (0 no effect, 100 complete control), read-out: Barnyardgrass plant response rating)
20%: pest or weed control at 125 g/ha ([1]; 125 g ai/ha, Preemergence, visual injury rating after approximately 10 d, read-out: Ryegrass, Italian plant response rating (0 to 100 scale, 0 is no effect, 100 is complete control)) | pest or weed control at 125 g/ha [8] | pest or weed control at 125 g/ha (Kochia (Kochia scoparia) [13])
90%: pest or weed control at 125 g/ha ([4]; 125 g ai/ha, Preemergence, visual injury rating after approximately 10 d, read-out: Barnyardgrass plant response rating (0 to 100 scale, 0 is no effect, 100 is complete control)) | pest or weed control at 125 g/ha [9] | pest or weed control at 125 g/ha [12] | pest or weed control at 250 g/ha [16]
30%: pest or weed control at 500 g/ha ([3]; 500 g ai/ha, preemergence, visual injury rating about 10 d after treatment, 0 to 100 scale (0 no effect, 100 complete control), read-out: Pigweed plant response rating) | pest or weed control at 125 g/ha [14]
70%: pest or weed control at 500 g/ha (Kochia (Kochia scoparia) [5]; 500 g ai/ha, preemergence, visual injury rating about 10 d after treatment, 0 to 100 scale (0 no effect, 100 complete control), read-out: Kochia plant response rating)
40%: pest or weed control at 500 g/ha ([1]; 500 g ai/ha, preemergence, visual injury rating about 10 d after treatment, 0 to 100 scale (0 no effect, 100 complete control), read-out: Ryegrass, Italian plant response rating) | pest or weed control at 125 g/ha (Kochia (Kochia scoparia) [5]; 125 g ai/ha, Preemergence, visual injury rating after approximately 10 d, read-out: Kochia plant response rating (0 to 100 scale, 0 is no effect, 100 is complete control))
0%: pest or weed control at 125 g/ha ([3]; 125 g ai/ha, Preemergence, visual injury rating after approximately 10 d, read-out: Pigweed plant response rating (0 to 100 scale, 0 is no effect, 100 is complete control)) | pest or weed control at 125 g/ha ([6]; 125 g ai/ha, Preemergence, visual injury rating after approximately 10 d, read-out: Ragweed plant response rating (0 to 100 scale, 0 is no effect, 100 is complete control)) | pest or weed control at 500 g/ha ([6]; 500 g ai/ha, preemergence, visual injury rating about 10 d after treatment, 0 to 100 scale (0 no effect, 100 complete control), read-out: Ragweed plant response rating) | pest or weed control at 125 g/ha [7] | pest or weed control at 125 g/ha [10] | Corn plant response rating (crop injury, 0 = no effect, 100 = complete kill) at 125 g/ha (corn (Zea mays)) | plant injury at 125 g/ha [11] | pest or weed control at 125 g/ha [15] | pest or weed control at 250 g/ha [17] | pest or weed control at 250 g/ha (rice (Oryra sativa))
